Assays:
Assay type in all cases: binding
[1] = target: T1, CCR3 (Homo sapiens, UniProt P51677); experiment: NanoBRET screen HiBiT-CCR3 in HEK293; conditions: CCR3
T1 construct: purchased Promega (in-house HiBiT-GPCR construct library, NanoBRET)
T1 sequence (P51677 1-355): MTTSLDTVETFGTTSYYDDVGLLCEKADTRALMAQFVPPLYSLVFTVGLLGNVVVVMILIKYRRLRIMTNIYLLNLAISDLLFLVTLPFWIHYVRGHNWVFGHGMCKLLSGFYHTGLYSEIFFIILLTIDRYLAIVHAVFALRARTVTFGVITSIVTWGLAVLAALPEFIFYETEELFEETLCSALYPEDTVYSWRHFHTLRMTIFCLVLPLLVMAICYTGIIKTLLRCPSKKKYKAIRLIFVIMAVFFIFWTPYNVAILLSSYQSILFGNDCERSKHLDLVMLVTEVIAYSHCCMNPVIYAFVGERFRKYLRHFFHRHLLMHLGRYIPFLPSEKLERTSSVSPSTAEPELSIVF
Method: (§1) Each tracer candidate was screened across the entire library of HiBiT-GPCR constructs using NanoBRET as the detection modality. As depicted in Figure 4A, the specificity of interactions was evaluated through decrease in BRET due to competitive displacement of a bound tracer by excess parental compound. Each tracer was analyzed for binding to each HiBiT-GPCR fusion in the absence and in the presence of competing parental compound. Briefly, HEK293 cells were transfected with HiBiT-GPCR constructs diluted into promoterless DNA to reduce expression and maximize translocation to the cell surface. Each tracer candidate was then screened at concentrations of 1 μM and 0.1 μM across cells expressing these fusions. Cells were treated for 1.5 h with tracer either alone or in the presence of 20 μM competing parental compound (i.e., control). BRET was measured upon addition of purified LgBiT and subsequent complementation with HiBiT genetically fused to a GPCR. The specificity of interactions was assessed through a decrease in BRET signal due to competitive displacement of the bound tracer. To further gauge the robustness of these interactions, the fold response over the control (i.e., BRETtracer/BRETcontrol) was calculated. We chose a 1.5-fold response, which translates to ≥7-fold signal over noise as the minimal threshold required to score an interaction as positive. […]. Below we highlight the screening results obtained for our exemplary fluorescent tracers based on Clozapine, Amitriptyline and AZD1283.
(§2) HiBiT-GPCR DNA constructs were diluted in 10 mM Tris pH 8 to a final concentration of 0.01 μg/μL, arrayed in 96-well plates and stored at −20 °C. For transfection, HEK293 cells were suspended in Opti-MEM (without phenol red) supplemented with 2% fetal bovine serum (Seradigm) and 100 units/mL penicillin–streptomycin (Gibco) at a final concentration of 220,000 cells/mL and dispensed into white 96-well plates at 90 μL/well. Subsequent transfections and screens were carried using an Agilent Bravo Automated Liquid Handling Platform. First, the 96-well HiBiT DNA arrays were diluted 25-fold in Opti-MEM (without serum or phenol red) to a final concentration of 0.0004 μg/μL and 20 μL of the diluted DNAs were transferred into new 96-well plates. Next, promoterless carrier DNA (1 μg/μL) was diluted 25-fold (0.04 μg/μL) and then dispensed into the diluted arrays at 20 μL/well. Following brief mixing, Viafect transfection reagent (Promega) diluted 16-fold into Opti-MEM was dispensed into the plates at 40 μL/well. After mixing by pipetting, plates were incubated for 10 min on the pipetting station deck. The DNA-transfection reagent complexes were then added to plates containing cells. To facilitate the screen, 10 μL of DNA-transfection reagent complexes were added in duplicates to the top 4 and bottom 4 rows, resulting in two identical 48-well arrays per plate. Plates with transfected cells were incubated for 18–20 h at 37 °C/5% CO2. A screen of each tracer across the entire library using two different concentrations requires duplicate plates of transfected cells. Depending on the number of tracers being screened, transfections can be scaled up using the same ratios. The next day, for each tracer, four 20× screening solutions in tracer dilution buffer (Promega) were prepared: two duplicates at final concentration of 20 μM and two duplicates at a final concentration of 2 μM. A competing unmodified compound was added to one of each duplicate at a final concentration of 400 μM. The four resulting solutions were diluted 4-fold in Opti-MEM without serum or phenol red to generate 5× solutions (5 µM and 0.5 µM tracer +/− 100 μM competing compound). To screen the library, a BioTek MultiFlo FX liquid dispenser was used to dispense 22.5 µL of tracer solution to the top 4 rows and 22.5 µL tracer + competing compound solution to the 4 bottom rows. Plates were briefly mixed on an orbital shaker and incubated for 1.5 h at room temperature. […]

[2] = target: T2, HTR1B (Homo sapiens, UniProt P28222); experiment: NanoBRET screen HiBiT-HTR1B in HEK293; conditions: HTR1B
T2 construct: purchased Promega (in-house HiBiT-GPCR construct library, NanoBRET)
Method: as §1, §2

[3] = target: T3, FPR1 (Homo sapiens, UniProt P21462); experiment: NanoBRET screen HiBiT-FPR1 in HEK293; conditions: FPR1
T3 construct: purchased Promega (in-house HiBiT-GPCR construct library, NanoBRET)
T3 sequence (P21462 1-350): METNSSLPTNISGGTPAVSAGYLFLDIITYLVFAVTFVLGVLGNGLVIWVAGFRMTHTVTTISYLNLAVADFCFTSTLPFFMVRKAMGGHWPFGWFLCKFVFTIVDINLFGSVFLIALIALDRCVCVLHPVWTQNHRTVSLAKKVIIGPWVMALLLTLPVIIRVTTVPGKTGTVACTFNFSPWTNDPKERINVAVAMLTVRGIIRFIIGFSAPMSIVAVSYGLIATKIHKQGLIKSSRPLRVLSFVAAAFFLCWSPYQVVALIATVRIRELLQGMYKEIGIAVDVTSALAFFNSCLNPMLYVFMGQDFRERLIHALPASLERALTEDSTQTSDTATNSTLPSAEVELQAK
Method: as §1, §2

[4] = target: T4, TBXA2R (Homo sapiens, UniProt P21731); experiment: NanoBRET screen HiBiT-TBXA2R in HEK293; conditions: TBXA2R
T4 construct: purchased Promega (in-house HiBiT-GPCR construct library, NanoBRET)
T4 sequence (P21731 1-343): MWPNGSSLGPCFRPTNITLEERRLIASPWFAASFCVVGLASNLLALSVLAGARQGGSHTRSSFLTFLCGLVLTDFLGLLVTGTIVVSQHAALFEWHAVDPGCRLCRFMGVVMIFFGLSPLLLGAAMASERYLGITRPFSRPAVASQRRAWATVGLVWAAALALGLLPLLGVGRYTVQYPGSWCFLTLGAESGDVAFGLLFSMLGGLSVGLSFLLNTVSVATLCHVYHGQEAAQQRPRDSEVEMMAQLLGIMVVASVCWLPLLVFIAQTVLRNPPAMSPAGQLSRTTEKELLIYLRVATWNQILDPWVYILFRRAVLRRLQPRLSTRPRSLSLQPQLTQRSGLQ
Method: as §1, §2

[5] = target: T5, CNR1 (Homo sapiens, UniProt P21554); experiment: NanoBRET screen HiBiT-CNR1 in HEK293; conditions: CNR1
T5 construct: purchased Promega (in-house HiBiT-GPCR construct library, NanoBRET)
Method: as §1, §2

T2 sequence (P28222 whole entry): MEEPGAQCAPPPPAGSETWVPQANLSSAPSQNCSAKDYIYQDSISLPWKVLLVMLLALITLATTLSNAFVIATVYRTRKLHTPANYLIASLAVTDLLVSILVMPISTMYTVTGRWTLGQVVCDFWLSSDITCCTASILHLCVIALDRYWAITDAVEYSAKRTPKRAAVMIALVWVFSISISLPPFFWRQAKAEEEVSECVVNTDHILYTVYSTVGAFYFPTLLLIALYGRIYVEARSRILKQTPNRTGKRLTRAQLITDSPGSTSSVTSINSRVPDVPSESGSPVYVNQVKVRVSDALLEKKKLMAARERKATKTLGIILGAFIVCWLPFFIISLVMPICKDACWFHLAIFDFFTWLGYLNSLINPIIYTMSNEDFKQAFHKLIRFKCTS
T5 sequence (P21554 whole entry): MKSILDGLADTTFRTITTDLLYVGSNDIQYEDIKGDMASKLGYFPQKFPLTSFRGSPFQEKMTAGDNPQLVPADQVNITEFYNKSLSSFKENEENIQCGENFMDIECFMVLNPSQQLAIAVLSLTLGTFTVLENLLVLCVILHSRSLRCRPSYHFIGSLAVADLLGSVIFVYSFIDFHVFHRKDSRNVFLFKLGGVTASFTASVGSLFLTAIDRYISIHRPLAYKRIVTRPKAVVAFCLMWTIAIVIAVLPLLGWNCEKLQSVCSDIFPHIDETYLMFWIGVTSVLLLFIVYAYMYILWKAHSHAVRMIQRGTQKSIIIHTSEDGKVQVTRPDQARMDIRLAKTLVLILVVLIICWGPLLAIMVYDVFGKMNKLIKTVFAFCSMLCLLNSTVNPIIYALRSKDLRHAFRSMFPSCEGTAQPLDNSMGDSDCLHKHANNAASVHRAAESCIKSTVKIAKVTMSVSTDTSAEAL

Row | SMILES | NanoBRET Fold Response ([1]; tracer 0.1μM) | NanoBRET Fold Response ([1]; tracer 1μM) | NanoBRET Fold Response ([2]; tracer 0.1μM) | NanoBRET Fold Response ([2]; tracer 1μM) | NanoBRET Fold Response ([3]; tracer 0.1μM) | NanoBRET Fold Response ([3]; tracer 1μM) | NanoBRET Fold Response ([4]; tracer 0.1μM) | NanoBRET Fold Response ([4]; tracer 1μM) | NanoBRET Fold Response ([5]; tracer 0.1μM) | NanoBRET Fold Response ([5]; tracer 1μM)
1 | O=C(CCc1ccc2n1[B-](F)(F)[N+]1=C(c3ccc[nH]3)C=CC1=C2)NCCOCCOCCNC(=O)OCCOCCN1CCN(C2=Nc3ccccc3Sc3ccccc32)CC1 [Quetiapine-a-2-NB590] | 1.11 | 0.98 | 1.03 | 1.58 | 1.05 | 0.92 | 1.01 | 1.05 | 1.00 | 1.00
2 | Cc1nc2n(c(=O)c1CCN1CCC(c3noc4cc(F)ccc34)CC1)CCCC2OC(=O)NCCOCCOCCOCCOCCNC(=O)CCc1ccc2n1[B-](F)(F)[N+]1=C(c3ccc[nH]3)C=CC1=C2 (centres unmarked) [Risperidone-2-NB590] | 1.06 | 1.27 | 3.33 | 2.70 | 0.97 | 0.91 | 0.93 | 1.01 | 1.00 | 1.02
3 | CC(C)N(CC[C@H](c1ccccc1)c1cc(CCNC(=O)CCOCCOCCOCCOCCNC(=O)CCc2ccc3n2[B-](F)(F)[N+]2=C(c4ccc[nH]4)C=CC2=C3)ccc1O)C(C)C [Tolterodine-2-NB590] | 1.63 | 1.01 | 0.79 | 1.12 | 1.07 | 0.85 | 0.79 | 1.01 | 1.03 | 1.14
4 | CC(C)N(CC[C@H](c1ccccc1)c1cc(CCNC(=O)c2ccc(CNC(=O)CCc3ccc4n3[B-](F)(F)[N+]3=C(c5ccc[nH]5)C=CC3=C4)cc2)ccc1O)C(C)C [Tolterodine-BZ-NB590] | 0.98 | 0.72 | 1.12 | 1.33 | 1.02 | 1.02 | 0.91 | 1.03 | 1.01 | 0.13
5 | CCCn1c(=O)c2[nH]c(-c3ccc(OCC(=O)NCCNC(=O)CCOCCNC(=O)c4ccc(CNC(=O)CCc5ccc6n5[B-](F)(F)[N+]5=C(c7ccc[nH]7)C=CC5=C6)cc4)cc3)nc2n(CCC)c1=O [XAC-3-NB590] | 1.28 | 0.79 | 0.66 | 1.24 | 1.15 | 1.10 | 1.04 | 1.04 | 1.01 | 1.00
